We go through 22 molecules from patent US11446287B2, “Compounds and methods for EP300 or CBP modulation and indications therefor” (Opna Immuno-Oncology SA, priority 2019, dated 2022).

In this assay the target is T1, Recombinant human CBP containing the bromodomain (CBP-BD (1043-1159)) (Homo sapiens, UniProt Q92793).
T1 construct: Recombinant human CBP bromodomain (CBP-BD (1043-1159)); made in house; host or cells: E. coli BL21-CodonPlus (DE3), modified pET vector
Nature of the assay: CBP Alphascreen binding assay. Conditions: read-out: CREBBP (CBP) IC50. As for the experimental part:
CBP Alphascreen Binding Assay
Binding of compounds of Formula (I) with CBP was assessed using Alphascreen™ binding assay. The inhibition of the interaction between the CBP bromodomain and its acetylated target protein was measured quantitatively using recombinant CBP, an acetylated Histone 3 peptide and AlphaScreen™ technology. In absence of inhibition of the CBP protein bound to AlphaScreen™ nickel chelate acceptor beads can interact with the acetylated Histone 3 peptide which was immobilized by the AlphaScreen™ Streptavidin coated beads. This interaction brings donor and acceptor beads in proximity. The close proximity allows the singlet oxygen produced by laser excitation of the donor beads to reach the acceptor beads and generate a luminescence signal. CBP inhibitors result in a decrease in the proximity signal through an inhibition of the CBP—acetylated peptide interaction.
Recombinant human CBP containing the bromodomain (CBP-BD (1043-1159)) was prepared and purified as described in protein expression and purification session. The peptide was human Histone H345-64K56Ac-Biotin (Anaspec CA, USA).
Protocol for CBP assay: All components are prepared in buffer composed of 50 mM HEPES pH 7.5, 50 mM NaCl, 0.01% BSA, 0.01% Triton X-100, 2 mM DTT. Test compounds and DMSO vehicle are diluted 1:50 in buffer and a 4 μL volume was transferred to an Alphaplate. 5.5 μL of CBP protein and 5.5 μL of peptide are added to wells containing 4 μL of various concentrations of test compounds of Formula (I) or DMSO vehicle in an Alphaplate (PerkinElmer GA, USA) and incubated for 1 hour at room temperature. 5 μL donor and acceptor bead mixture was then added with final concentrations of 7.5 μg/ml. 60 minutes after bead addition, Alpha signal was read on the Envision spectrometer (λEx 680 nm, λEm 520-620 nm). Final concentrations of bromodomain proteins and peptide are as shown below.
All data were normalized to the mean of 16 high and 16 low control wells on each plate. A four parameter curve fit of the following formula was then applied: Y=A+((B−A)/(1+((C/x)^D))) Where ‘A’ is the minimum, ‘B’ is the maximum, ‘C’ is the IC50 and ‘D’ is the Hill slope. Protein Expression and Purification
Recombinant human CBP bromodomain (CBP-BD (1043-1159)) was expressed in E. coli cells (in a modified pET vector) with an N-terminal six-His tag and purified using a combination of both IMAC (Ni-affinity) and size exclusion chromatography steps.
Recombinant CBP protein was expressed using the E. coli strain BL21-CodonPlus (DE3) (Agilent Technologies CA, USA). Cells were grown in Terrific Broth (TB) media to an OD600 of 0.92 at 37° C. at which temperature was reduced to 20° C., protein was induced with 1.0 mM isopropyl-β-D-thiogalactopyranoside (“IPTG”) for 20 hours and harvested by centrifugation at 8500×g for 20 minutes. Cells were re-suspended in 0.1M K2PO4 pH 8.0, 250 mM NaCl, 10% Glycerol, 0.75% NP-40, 25 mM Imidazole, with 0.2 mg/ml Lysozyme, 0.2 mM phenylmethanesulfonyl fluoride (“PMSF”), […] (“BME”), 25 μg/ml DNase I, incubated on ice for 30 minutes and lysed with a cell disruptor (MicroFluidics MA, USA). The lysate was clarified by centrifugation at 20,000×g for 1 hour. The protein was captured with Ni-NTA resin (Life Technologies, USA). Contaminating proteins were washed off with 40 mM HEPES pH 7.5, 500 mM NaCl, 5% Glycerol, 5 mM Imidazole, and 5 mM BME. Following 3× wash steps, protein was eluted using 400 mM Imidazole in 40 mM HEPES pH 7.5, 400 mM NaCl, and 5 mM BME. The protein was further purified using a size exclusion column (26/600 Superdex 200, GE Biosciences NJ, USA) in 40 mM HEPES pH 7.5, 250 mM NaCl, 5 mM BME. The protein was aliquoted and flash-frozen in liquid Nitrogen.

T1 sequence (Q92793 1081-1197): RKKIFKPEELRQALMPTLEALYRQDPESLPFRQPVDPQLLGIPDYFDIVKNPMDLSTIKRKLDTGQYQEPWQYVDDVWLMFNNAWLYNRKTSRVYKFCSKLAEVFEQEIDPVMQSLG

As a reminder, the IC50 is the concentration at which inhibition is half-maximal. As to `Cc1noc(C)c1-c1cnc2c(c1)c(-c1ccc(C(=O)O)cc1OC1COC1)cn2[C@@H](C)c1ccccn1` [P-0137, (S)-4-(5-(3,5-dimethylisoxazol-4-yl)-1-(1-(pyridin-2-yl)ethyl)-1H-pyrrolo[2,3-b]pyridin-3-yl)-3-(oxetan-3-yloxy)benzoic acid], the concentration for half-maximal inhibition (IC50) lay in the range of 0.0001 to 1 µM. In the case of `Cc1noc(C)c1-c1cnc2c(c1)c(-c1ccc(C(=O)O)cc1OCC1CC1)cn2[C@@H](C)c1ccccn1` [P-0138, (S)-3-(cyclopropylmethoxy)-4-(5-(3,5-dimethylisoxazol-4-yl)-1-(1-(pyridin-2-yl)ethyl)-1H-pyrrolo[2,3-b]pyridin-3-yl)benzoic acid] it was 0.0001 to 1 µM. For `Cc1noc(C)c1-c1cnc2c(c1)c(-c1ccc(C(=O)O)cc1OCc1ccccc1)cn2[C@@H](C)c1ccccn1` [P-0139, (S)-3-(benzyloxy)-4-(5-(3,5-dimethylisoxazol-4-yl)-1-(1-(pyridin-2-yl)ethyl)-1H-pyrrolo[2,3-b]pyridin-3-yl)benzoic acid], the IC50 lay within 0.0001 to 1 µM. The value for `COc1ccc(C(=O)O)cc1-c1cn(C(C)c2ccccc2)c2cc(-c3c(C)noc3C)cnc12` (stereo not shown) [P-0140, 3-(6-(3,5-dimethylisoxazol-4-yl)-1-(1-phenylethyl)-1H-pyrrolo[3,2-b]pyridin-3-yl)-4-methoxybenzoic acid] was 1 to 8 µM. In the case of `Cc1noc(C)c1-c1cnc2c(-c3cc(C(=O)O)ccc3Cl)cn(C(C)c3ccccc3)c2c1` (stereo not shown) [P-0141, 4-chloro-3-(6-(3,5-dimethylisoxazol-4-yl)-1-(1-phenylethyl)-1H-pyrrolo[3,2-b]pyridin-3-yl)benzoic acid] it was 0.0001 to 1 µM; in that of `COc1cc(C(=O)O)ccc1-c1cn([C@@H](C)c2ccccn2)c2cc(-c3c(C)noc3C)cnc12` [P-0142, (S)-4-(6-(3,5-dimethylisoxazol-4-yl)-1-(1-(pyridin-2-yl)ethyl)-1H-pyrrolo[3,2-b]pyridin-3-yl)-3-methoxybenzoic acid], 0.0001 to 1 µM.

As to `Cc1noc(C)c1-c1cnc2c(CC3CCC3)cn(-c3ccc(O)nc3)c2c1` [P-0143, 5-(3-(cyclobutylmethyl)-6-(3,5-dimethylisoxazol-4-yl)-1H-pyrrolo[3,2-b]pyridin-1-yl)pyridin-2-ol], the IC50 is 1 to 8 µM. For `COc1cc(C(=O)O)cc(O)c1-c1cn([C@@H](C)c2ccccn2)c2ncc(-c3c(C)noc3C)cc12` [P-0144, (S)-4-(5-(3,5-dimethylisoxazol-4-yl)-1-(1-(pyridin-2-yl)ethyl)-1H-pyrrolo[2,3-b]pyridin-3-yl)-3-hydroxy-5-methoxybenzoic acid], the 50% inhibitory concentration (IC50) was in the range of 0.0001 to 1 µM. With `Cc1noc(C)c1-c1cnc2c(c1)c(-c1ccnc(O)c1)cn2[C@@H](C)c1ccccn1` [P-0145, (S)-4-(5-(3,5-dimethylisoxazol-4-yl)-1-(1-(pyridin-2-yl)ethyl)-1H-pyrrolo[2,3-b]pyridin-3-yl)pyridin-2-ol], the 50% inhibitory concentration (IC50) fell in the range of 8 to 1000 µM. In the case of `COc1cc(C(=O)O)cc(OC)c1-c1cn([C@@H](C)c2ccccn2)c2cc(-c3c(C)noc3C)cnc12` [P-0146, (S)-4-(6-(3,5-dimethylisoxazol-4-yl)-1-(1-(pyridin-2-yl)ethyl)-1H-pyrrolo[3,2-b]pyridin-3-yl)-3,5-dimethoxybenzoic acid] it was 1 to 8 µM; in that of `CCOc1cc(C(=O)O)cc(OCC)c1-c1cn([C@@H](C)c2ccccn2)c2ncc(-c3c(C)noc3C)cc12` [P-0147, (S)-4-(5-(3,5-dimethylisoxazol-4-yl)-1-(1-(pyridin-2-yl)ethyl)-1H-pyrrolo[2,3-b]pyridin-3-yl)-3,5-diethoxybenzoic acid], 0.0001 to 1 µM. In the case of `CC[C@@H](c1ccccn1)n1cc(-c2cc(C(=O)O)ccc2Cl)c2ncc(-c3c(C)noc3C)cc21` [P-0148, (S)-4-chloro-3-(6-(3,5-dimethylisoxazol-4-yl)-1-(1-(pyridin-2-yl)propyl)-1H-pyrrolo[3,2-b]pyridin-3-yl)benzoic acid] it was 0.0001 to 1 µM; in that of `Cc1noc(C)c1-c1cc2c(cn1)c(CC1CCC1)cn2-c1c(Cl)cc(C(=O)O)cc1Cl` [P-0149, 3,5-dichloro-4-(3-(cyclobutylmethyl)-6-(3,5-dimethylisoxazol-4-yl)-1H-pyrrolo[3,2-c]pyridin-1-yl)benzoic acid], 0.0001 to 1 µM; in that of `Cc1noc(C)c1-c1cnc2c(-c3ccccc3)cn(-c3c(Cl)cc(C(=O)O)cc3Cl)c2c1` [P-0150, 3,5-dichloro-4-(6-(3,5-dimethylisoxazol-4-yl)-3-phenyl-1H-pyrrolo[3,2-b]pyridin-1-yl)benzoic acid], 0.0001 to 1 µM. In the case of `Cc1noc(C)c1-c1cnc2c(C3=CCOCC3)cn(-c3c(Cl)cc(C(=O)O)cc3Cl)c2c1` [P-0151, 3,5-dichloro-4-(3-(3,6-dihydro-2H-pyran-4-yl)-6-(3,5-dimethylisoxazol-4-yl)-1H-pyrrolo[3,2-b]pyridin-1-yl)benzoic acid] it was 0.0001 to 1 µM.

For `COc1cc(C(=O)O)cc(OCC2CC2)c1-c1cn([C@@H](C)c2ccccn2)c2ncc(-c3c(C)noc3C)cc12` [P-0152, (S)-3-(cyclopropylmethoxy)-4-(5-(3,5-dimethylisoxazol-4-yl)-1-(1-(pyridin-2-yl)ethyl)-1H-pyrrolo[2,3-b]pyridin-3-yl)-5-methoxybenzoic acid], the half-maximal inhibitory concentration (IC50) was 0.0001 to 1 µM. Take `COc1cc(C(=O)O)cc(OCC(F)(F)F)c1-c1cn([C@@H](C)c2ccccn2)c2ncc(-c3c(C)noc3C)cc12` [P-0153, (S)-4-(5-(3,5-dimethylisoxazol-4-yl)-1-(1-(pyridin-2-yl)ethyl)-1H-pyrrolo[2,3-b]pyridin-3-yl)-3-methoxy-5-(2,2,2-trifluoroethoxy)benzoic acid]: the concentration for half-maximal inhibition (IC50) lay in the range of 0.0001 to 1 µM.

As to `Cc1noc(C)c1-c1cnc2c(-c3ccc(C(=O)O)cc3)c(C(F)(F)F)n([C@@H](C)c3ccccn3)c2c1` [P-0154, (S)-4-(6-(3,5-dimethylisoxazol-4-yl)-1-(1-(pyridin-2-yl)ethyl)-2-(trifluoromethyl)-1H-pyrrolo[3,2-b]pyridin-3-yl)benzoic acid], the IC50 fell in the range of 0.0001 to 1 µM. In the case of `Cc1noc(C)c1-c1cnc2c(-c3ccccc3Cl)cn(C(C)(c3ccccn3)c3ccccn3)c2c1` [P-0155, 4-(3-(2-chloropheny1)-1-(1,1-di(pyridin-2-yl)ethyl)-1H-pyrrolo[3,2-b]pyridin-6-yl)-3,5-dimethylisoxazole] it was 0.0001 to 1 µM. The value for `Cc1noc(C)c1-c1cnc2c(c1)c(-c1ccc(C(=O)O)cc1OC(F)(F)F)cn2C(C1CC1)C1CC1` [P-0156, 4-(1-(dicyclopropylmethyl)-5-(3,5-dimethylisoxazol-4-yl)-1H-pyrrolo[2,3-b]pyridin-3-yl)-3-(trifluoromethoxy)benzoic acid] was 0.0001 to 1 µM. Consider `Cc1noc(C)c1-c1cnc2c(c1)c(-c1ccc(C(=O)O)cc1OC(F)(F)F)cn2CC1CC(F)(F)C1` [P-0157, 4-(1-((3,3-difluorocyclobutyl)methyl)-5-(3,5-dimethylisoxazol-4-yl)-1H-pyrrolo[2,3-b]pyridin-3-yl)-3-(trifluoromethoxy)benzoic acid], for which the IC50 lay in the range of 0.0001 to 1 µM.

With `Cc1noc(C)c1-c1cnc2c(c1)c(-c1ccc(C(=O)O)cc1OC(F)(F)F)cn2-c1ccccn1` [P-0158, 4-(5-(3,5-dimethylisoxazol-4-yl)-1-(pyridin-2-yl)-1H-pyrrolo[2,3-b]pyridin-3-yl)-3-(trifluoromethoxy)benzoic acid], the IC50 was in the range of 0.0001 to 1 µM.
